For the assay, the system named is Acvr1^huecto[R206H]FIEx;[S330P]/+; Nanog-Cre mice ("FOP mice"). Description: Anti-Activin A antibody treatment of FOP mice: survival and HO formation. In kind it is in vivo, mouse. The procedure:
Wild type mice and Acvr1^huecto[R206H]FIEx;[S330P]/+; Nanog-Cre mice (“FOP mice”) were treated with an anti-Activin A monoclonal antibody (Garetosmab) or an isotype control antibody.
Wild type mice and Acvr1^huecto[R206H]FIEx;[S330P]/+; Nanog-Cre mice (“FOP mice”) were treated with an anti-Activin A monoclonal antibody (Garetosmab) and an isotype control antibody. […] The deaths in untreated FOP mice are believed to be possibly due to jaw HO.

Turning to “Garetosmab: anti-Activin A monoclonal antibody”, where the note is “compared with isotype control antibody”, the HO formation result is given as “inhibited HO formation”. Further, the survival (treatment initiated at 2 weeks of age, survival through 8 weeks of age) is reported as 100%.

(Values after US20250295096A1, “A RODENT MODEL OF FIBRODYSPLASIA OSSIFICANS PROGRESSIVA” (REGENERON PHARMACEUTICALS, INC., priority 2022, published 2025).)
